In patent US20250235437A1, “PROTEOLYSIS TARGETING CHIMERA (PROTAC) MOLECULE FOR DEGRADATION OF ENL AND CANCER THERAPY” (Baylor College of Medicine, priority 2022, published 2025):
Like-named read-outs stand apart in the source and are kept apart here.

Experiments:
Panc1 = conditions: read-out: EC50, proliferation; Panc1 (pancreatic) cells
Description: (§1) FIGS. 6A-6G summarize the antitumor activities of ENL-targeting compounds.

[1] = tested on: Kasumi-1, RPMI-8226 and U266 cells; conditions: read-out: EC50, proliferation; AML Kasumi-1 and myeloma RPMI-8226 and U266 cells, range over cell lines
Description: as §1

HoxA9, Meis1 and Myc = assay: Expression of HoxA9, Meis1 and Myc in Molm-13 cells; type: cell-based; conditions: 4 days
Description: Previous studies show ENL is required for expression of MLL1-target genes in MLL1-r leukemia. How compound 1-mediated ENL degradation changes expression of HoxA9, Meis1 and Myc, three characteristic genes in MLL1-r leukemia, was examined. Molm-13 cells were treated with compound 1 for 4 days, after which the RNAs were extracted and analyzed.

Molm-13 cells [2] = assay: Gene profiling and GSEA in Molm-13 cells; type: cell-based; conditions: 500 nM
Description: Gene profiling was performed to find how compound 1 affects global gene transcriptome. mRNAs from the control and compound 1 (500 nM) treated Molm-13 cells were extracted, purified and sequenced. Bioinformatic analysis was performed to find differentially expressed genes between the treated and control cells, which were used for gene set enrichment analysis (GSEA). […] These clearly indicate that treatment with compound 1 recapitulated ENL knockout with similar patterns of gene expression changes.

ENL = molecular target: T1, ENL (Homo sapiens, UniProt Q03111); assay: ENL degradation in MV4;11 cells (Western blot); type: cell-based; conditions: 500 nM
T1 construct: tested whether the compounds degrade ENL and AF9 in MV4;11 leukemia cells; endogenous in cells; host or cells: MV4;11; Molm-13
T1 sequence (Q03111 1-559): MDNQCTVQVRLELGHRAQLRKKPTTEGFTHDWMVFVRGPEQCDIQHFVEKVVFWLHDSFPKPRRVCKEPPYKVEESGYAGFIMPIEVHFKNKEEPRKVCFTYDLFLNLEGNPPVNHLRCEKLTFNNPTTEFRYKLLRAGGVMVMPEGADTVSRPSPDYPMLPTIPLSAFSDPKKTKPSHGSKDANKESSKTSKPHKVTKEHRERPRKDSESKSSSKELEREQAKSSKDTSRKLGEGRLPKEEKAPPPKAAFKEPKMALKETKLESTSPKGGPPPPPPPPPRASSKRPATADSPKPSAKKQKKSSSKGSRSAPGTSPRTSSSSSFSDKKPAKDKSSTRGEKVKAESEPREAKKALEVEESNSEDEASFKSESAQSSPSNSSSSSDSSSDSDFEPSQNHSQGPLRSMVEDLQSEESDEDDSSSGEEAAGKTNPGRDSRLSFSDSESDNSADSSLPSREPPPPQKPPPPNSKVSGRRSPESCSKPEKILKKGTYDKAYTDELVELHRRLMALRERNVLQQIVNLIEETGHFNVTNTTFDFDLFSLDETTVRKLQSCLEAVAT

Molm-13 cells [3] = assay: Anti-proliferative activity, Molm-13 cells; type: cell-based; conditions: Molm-13 cells, FIG. 6B
Hela cell [4] = assay: Anti-proliferative activity, Hela cells; type: cell-based; conditions: Hela (cervical) cells; read-out: EC50, proliferation
H3K79 methylation = assay: Nuclear H3K79 methylation in MV4;11 cells, 4 days; type: cell-based
Description: Applicant further investigated how compound 1 affects ENL, AF9 and other proteins of SEC in the cytoplasmic and nuclear compartments, the latter of which are more relevant to the functions of these transcription cofactors. […] Upon treatment of MV4;11 cells with these compounds for 4 days, cytoplasmic and nuclear proteins were separated and subjected to SDS-PAGE/Western blot.

RPMI-8226 cells = assay: Anti-proliferative activity, RPMI-8226 cells; type: cell-based
mutant ENL (mENL) = molecular target: T2, mutant ENL (mENL) (Homo sapiens, UniProt Q03111, INS117NHL); assay: Degradation of mutant and WT ENL in transfected HEK293T cells; type: cell-based
T2 construct: expressed in transfected cells; host or cells: HEK293T
Description: Ability of compound 1 to degrade mutant ENL, which has been implicated to cause Wilms tumor, was evaluated. […] A pcDNA3.1(+)-N-DYK plasmid containing a mutant ENL (mENL) with a short insertion of -NHL- between L117 and R118 was transfected into 5×10^5 HEK293T cells. Upon incubation for 24 h, expression of the FLAG-tagged mENL can be dose-dependently detected with as low as […] of the plasmid (FIG. 7A). Using a FLAG antibody appeared to be less quantitative because of a higher background staining for the control samples (FIGS. 7A-7C, left panels).
With 0.1 μg of the plasmid, compound 1 can efficiently degrade both WT and mutant ENL proteins with Dmax of ˜95% at ˜500 nM upon 24 h incubation (FIG. 7B). […] It was ineffective with […] of the plasmid (not shown), presumably because the rate of mENL synthesis in cells was higher than that of 1-mediated degradation.

Hela cell [5] = conditions: Hela cells, footnote b: reported in Li, et al. J Hematol Oncol, 2022; read-out: Anti-proliferative activity EC50, Hela; cited from earlier work

T2 sequence (Q03111 with tags, fused parts or gaps INS117NHL): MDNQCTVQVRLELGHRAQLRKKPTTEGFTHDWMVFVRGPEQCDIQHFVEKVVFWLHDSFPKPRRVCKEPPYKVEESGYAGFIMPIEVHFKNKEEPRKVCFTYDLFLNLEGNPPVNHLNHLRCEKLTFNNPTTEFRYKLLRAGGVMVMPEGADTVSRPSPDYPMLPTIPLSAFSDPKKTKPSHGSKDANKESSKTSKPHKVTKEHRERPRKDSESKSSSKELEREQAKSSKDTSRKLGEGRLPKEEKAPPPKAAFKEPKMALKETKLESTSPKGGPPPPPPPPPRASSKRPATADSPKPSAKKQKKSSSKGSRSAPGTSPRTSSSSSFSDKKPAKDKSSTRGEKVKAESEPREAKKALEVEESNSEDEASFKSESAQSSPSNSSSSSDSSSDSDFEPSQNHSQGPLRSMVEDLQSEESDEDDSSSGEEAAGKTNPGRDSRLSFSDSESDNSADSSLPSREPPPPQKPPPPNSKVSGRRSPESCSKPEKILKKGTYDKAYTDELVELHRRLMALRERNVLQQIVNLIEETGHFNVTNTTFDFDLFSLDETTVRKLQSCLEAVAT
T2 sequence (Q96SW2 whole entry partner): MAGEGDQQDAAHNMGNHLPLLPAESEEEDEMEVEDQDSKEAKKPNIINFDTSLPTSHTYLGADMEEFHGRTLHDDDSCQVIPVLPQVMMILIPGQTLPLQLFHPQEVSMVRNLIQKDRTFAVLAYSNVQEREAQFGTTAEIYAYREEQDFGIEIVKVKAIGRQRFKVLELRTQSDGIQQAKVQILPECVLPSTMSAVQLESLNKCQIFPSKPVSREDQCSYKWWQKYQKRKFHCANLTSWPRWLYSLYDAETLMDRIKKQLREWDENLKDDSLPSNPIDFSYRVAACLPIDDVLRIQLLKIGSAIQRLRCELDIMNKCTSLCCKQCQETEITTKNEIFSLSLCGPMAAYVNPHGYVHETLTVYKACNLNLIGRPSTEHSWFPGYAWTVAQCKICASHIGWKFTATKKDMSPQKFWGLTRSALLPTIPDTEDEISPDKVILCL

C[C@H]1CCCN1Cc1nc2cc(NC(=O)c3ccc4c(cnn4CCCCCCCCNc4cccc5c4C(=O)N(C4CCC(=O)NC4=O)C5=O)c3)ccc2[nH]1 (stereo partly drawn) [Compound 1]
EC50 (Panc1): > 50 µM
EC50 [1]: 1.1 to 4.1 µM
expression of HoxA9, Meis1 and Myc (HoxA9, Meis1 and Myc): significantly inhibit expression of these three genes in a generally dose-dependent manner
normalized enrichment score (NES), gene set upregulated upon ENL knockout (Molm-13 cells [2]; 4 days, GSEA panel 1): 7.46
normalized enrichment score (NES), gene set downregulated upon ENL knockout (Molm-13 cells [2]; 4 days, GSEA panel 2): −4.26
transcription of Myc-target genes (Molm-13 cells [2]; GSEA panel 7): significantly downregulated
gene sets regulated by knockdown of MLL-AF9 or -ENL (Molm-13 cells [2]; GSEA panels 3 and 4): significantly up- and down-regulated
expression of HoxA9-regulated genes (Molm-13 cells [2]; GSEA panels 5 and 6): reversed expression patterns
time at which significant ENL degradation can be detected (ENL): 2 h
time to ENL depletion (ENL): ≤ 24 h
time-dependent activity against cell proliferation (Molm-13 cells [3]): did not inhibit cell proliferation during the first 4 days
EC50 (Hela cell [4]): > 50 µM
nuclear levels of H3K79 methylation (H3K79 methylation): not consistently affected
EC50 (RPMI-8226 cells): 1.2 ± 0.23 µM
Dmax, WT and mutant ENL (mutant ENL (mENL); 0.1 μg plasmid, ~500 nM, 24 h incubation): ~95%
degradation of WT and mutant ENLs (mutant ENL (mENL); 0.2 μg plasmid, 500 nM): reduced efficiency
degradation of WT and mutant ENLs (mutant ENL (mENL); 1 g of the plasmid): ineffective
EC50 (Hela cell [5]): > 50 µM
